Data published in PMC3807845 (The Journal of Physical Chemistry. B, 2013).
“And” between values parts separate entries of the source, which are not always exact repeats. Equal values may be shown once. Read-outs that look alike come from different tables or passages of the source. Ends that are not written are not given here. * marks the point of attachment. FITC = O=C1OC2(c3ccc(O)cc3Oc3cc(O)ccc32)c2ccc(NC(=S)*)cc21

Tests used:
[1] = Circular dichroism, secondary structure; assay type: physicochemical; conditions: CD
Experimental: Circular dichroism (CD) scans were performed with an Applied Photophysics Chirascan, in cuvettes of 1 or 0.2 mm path length. In mixing experiments, individual solutions of FITC-cMyb and KIX in pH 7.4 100 mM sodium phosphate (0.05% tween-20) were prepared, and aliquots removed for mixing in a 1:1 ratio. Spectra were obtained for all three solutions and buffer subtracted. The expected spectrum in the absence of protein interaction was calculated as the average of the two spectra for the individual protein solutions. Helical content for FITC-cMyb alone was variously estimated as 28, 30, and 37% using the methods of Perez-Iratxeta et al.,[19] Morriset et al.,[20] and Chen et al.,[21] respectively.

CBP KIX (Mus musculus) = CBP KIX (Mus musculus) (UniProt P45481); conditions: cited from earlier work
[2] = tested on: pseudo-wild-type of KIX with a single point tryptophan mutation in the binding site (and an attached his-tag); conditions: cited from earlier work
Text: Association kinetics for this complex have recently been reported by Gianni et al., for a pseudo-wild-type of KIX with a single point tryptophan mutation in the binding site (and an attached his-tag).[46] […] After correction for the expected number of molecule collisions, the rate is still temperature dependent (Figure 3), which indicates the presence of an activation barrier that slows the association process. We stop short of interpreting the gradient of this plot (10.9 ± 0.7 kcal/mol) as the enthalpic barrier for folding. First, from CD denaturation studies (Figure S4, Supporting Information), it is clear that even over this narrow range of temperature there are conformatio ...

KIX [3] = conditions: pH 7, 27 °C; read-out: dissociation constant of unlabeled cMyb by ITC; cited from earlier work
Text: Second, the peptide was still observed to bind to KIX protein. On mixing FITC-cMyb with KIX, a reliable increase in the an ...

KIX [4] = conditions: NMR structure of the complex; cited from earlier work
Text: We confirmed this increase in helicity on binding by comparing CD measurements of the individual components and mixtures ...

KIX domain of mouse CBP [5] = target: T1, KIX domain of mouse CBP (Mus musculus, UniProt P45481); assay: Stopped-flow anisotropy kinetics, temperature dependence; assay type: binding
T1 construct: KIX domain of mouse CBP (Uniprot 45481, residues 586–672); hexahistidine tag with thrombin cleavage site (N, cleaved yes); made in house; host or cells: Escherichia coli C41 (DE3)
Experimental: The synthetic gene for the KIX domain of mouse CBP (Uniprot 45481, residues 586–672) was obtained from Genscript. The gene was inserted into a modified version of the pRSET A vector that encodes an N-terminal hexahistidine tag with a thrombin cleavage site between the tag and the protein. Protein expression was carried out in Escherichia coli C41 (DE3) grown in 2xTY media at 37 °C. Expression was induced once the cells reached an optical density of 0.4–0.6 AU at 600 nm, by adding IPTG to a final concentration of 0.1 mM and reducing the temperature to 18 °C. The cells were grown overnight and harvested by centrifugation. […] Bound protein was eluted with 250 mM imidazole, and the his-tag cleaved by overnight incubation with thrombin at room temperature. The protein was further purified by gel filtration using a Superdex G75 column in pH 7.4 100 mM sodium phosphate buffer. For ionic strength studies, KIX protein was buffer exchanged and stored in ddH2O. The concentration of KIX stocks was determined using an extinction coefficient of 12 009 M^–1 cm^–1 at 280 nm obtained by the method of Gill von Hippel.[18]
N-terminally labeled FITC-cMyb peptide (Uniprot P06876, residues 291–315) was purchased from Biomatik. 1 mg aliquots were dissolved at 1–2 mg/mL in ddH2O as required. The stock concentration was determined from the absorbance at 493 nm of a 20-fold dilution into biophysical buffer, using an extinction coefficient of 75 000 M^–1 cm^–1. Sodium phosphate, MOPS, and sodium chloride were purchased from Sigma. […]
Association kinetics were monitored by following the change in anisotropy of FITC-cMyb on binding using a SX20 stopped-flow spectrometer (Applied Photophysics) with an FP1 fluorescence polarization accessory. […] Anisotropy values reported from stopped-flow have not been corrected for background fluorescence.
In temperature studies, KIX solutions of various concentrations were mixed 1:1 with 1 μM FITC-cMyb. […] Dissociation rate constants (koff) were calculated from the relation koff = Kdkon, which is appropriate for two-state bimolecular reactions (see Results). […]

KIX domain of mouse CBP [6] = target: T1, KIX domain of mouse CBP; assay: Stopped-flow anisotropy kinetics, ionic strength dependence (MOPS); assay type: binding
Experimental: Two separate buffer types were utilized in these studies. First, 100 mM sodium phosphate buffer, pH 7.4, the pH of which is relatively insensitive to temperature changes, was used for the temperature studies. Second, 20 mM MOPS (pH 7.30 ± 0.02 at 10 °C) with a range of sodium chloride concentrations was used in ionic strength studies. MOPS buffers in the same range as phosphate but has a lower ionic strength because of its lower valency, enabling a larger range of ionic strengths to be investigated. We observed that the rate of association was slightly lower in phosphate buffer, considering our estimates of its ionic strength. In addition, 0.05% tween-20 was included in all biophysical buffers to avoid nonspecific interactions with plastic-ware.
In preparing solutions for kinetic assays, dilutions of KIX and FITC-cMyb stocks were weighed, so that accurate concentrations (accounting for solution density) were obtained.
Association kinetics were monitored by following the change in anisotropy of FITC-cMyb on binding using a SX20 stopped-flow spectrometer (Applied Photophysics) with an FP1 fluorescence polarization accessory. […] Anisotropy values reported from stopped-flow have not been corrected for background fluorescence. […]
The variation in association rate constant with ionic strength (I) was modeled with a Debye–Huckel-like approximation that has been determined empirically (eq 4).[24] […]

[7] = cited from earlier work
Experimental: The charge on KIX and cMyb at pH 7.4 was estimated using average pKa values reported for amino acids in globular proteins and model peptides.[54] The charge for FITC-cMyb was corrected to account for N-terminal addition of FITC. At pH 7.3–7.4 and 25 °C, fluoroscein exists predominantly as a dianion (∼90%), with some anion (∼10%), the equilibrium between the two species being described by a protolytic constant of 6.43.[27]

barnase = conditions: with barnase, cited from earlier work
Text: Although these rates are fast, they are nothing remarkable in themselves. […] The most famous example of such rate enhancement is for the two folded proteins barnase and barstar, which have been described as “ultrafast” associating proteins. At low ionic strengths, the reported kon is over 5 × 10^9 M^–1 s^–1; however, extrapolation to infinite ionic strength to obtain an esti ...

[8] = target: KIX domain of mouse CBP (residues 586-672) (mouse, UniProt P45481 586-672); assay: fluorescence polarisation; equilibrium anisotropy; 1 uM FITC-cMyb incubated 1 h with varying concentrations of KIX; 100 mM sodium phosphate pH 7.4, 0.05% tween-20; 25 °C; fit to eq 2; conditions: both partners purified
KIX domain of mouse CBP (residues 586-672), sequence (P45481 586-672): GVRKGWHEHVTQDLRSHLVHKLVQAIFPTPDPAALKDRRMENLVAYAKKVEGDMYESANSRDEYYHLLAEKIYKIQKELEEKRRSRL

T1 sequence (P45481 586-672): as above
CBP KIX (Mus musculus), sequence (P45481 583-668): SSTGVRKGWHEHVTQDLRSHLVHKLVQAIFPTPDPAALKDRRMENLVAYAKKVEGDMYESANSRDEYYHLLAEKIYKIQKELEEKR

KIX: KIX domain of mouse CBP (Uniprot 45481, residues 586–672)
reversibility of thermal denaturation / aggregation ([1]; 10 to 80 °C, indicative of aggregation at higher temperatures): Apparent nonreversibility | secondary structure over ionic strength range ([1]; MOPS buffers, 10 to 750 mM ionic strength, 10 °C): no significant change in the secondary structure | effect of temperature on helical content ([1]; thermal denaturation, pH 7.4 100 mM sodium phosphate, 10 to 80 °C): Helical content was reduced on increasing temperature

cMyb transactivation domain (from UniProt P06876)
Kd (CBP KIX (Mus musculus)): 10 µM and 12.5 µM

cMyb: 25 amino acid peptide from the TAD of cMyb, unlabeled
residual α-helical content, unbound state (summary) ([1]; free peptide, pH 7.4 100 mM sodium phosphate): around 30% | fold lower binding affinity than reported here ([2]; 25 °C, relatively similar buffer conditions, complex with pseudo-wild-type KIX): 3 fold | decrease of dissociation rate on partial helix stabilization by TFE ([2]; TFE): around 5 fold | increase of association rate on partial helix stabilization by TFE ([2]; TFE): around 1.4 fold | kon, Gianni et al. ([2]; compared at 25 °C, pseudo-wild-type his-tagged KIX): (2.5 ± 0.1) × 10^7 M^–1 s^–1 | Kd (KIX [3]): 10 µM | amino acids in a helix in the bound form (KIX [4]): 70%

CC[C@H](C)[C@H](NC(=O)[C@H](CCCNC(=N)N)NC(=O)[C@H](CCCCN)NC(=O)[C@H](CCC(=O)O)NC(=O)[C@H](CCCCN)NC(=S)Nc1ccc2c(c1)C(=O)OC21c2ccc(O)cc2Oc2cc(O)ccc21)C(=O)N[C@@H](CCCCN)C(=O)N[C@@H](CCC(=O)O)C(=O)N[C@@H](CC(C)C)C(=O)N[C@@H](CCC(=O)O)C(=O)N[C@@H](CC(C)C)C(=O)N[C@@H](CC(C)C)C(=O)N[C@@H](CC(C)C)C(=O)N[C@@H](CCSC)C(=O)N[C@@H](CO)C(=O)N[C@H](C(=O)N[C@@H](CCC(=O)O)C(=O)N[C@@H](CC(N)=O)C(=O)N[C@@H](CCC(=O)O)C(=O)N[C@@H](CC(C)C)C(=O)N[C@@H](CCCCN)C(=O)NCC(=O)N[C@@H](CCC(N)=O)C(=O)N[C@@H](CCC(N)=O)C(=O)N[C@@H](C)C(=O)N[C@@H](CC(C)C)C(=O)O)[C@@H](C)O [FITC-cMyb]
koff (KIX domain of mouse CBP [5]; 25 °C, extrapolated from temperature dependence, pH 7.4 100 mM sodium phosphate, read-out: koff extrapolated to 25 °C): 230 ± 20 s⁻¹ | kon (KIX domain of mouse CBP [5]; pH 7.4, read-out: kon extrapolated to 25 °C): ~2.2e+07 M⁻¹ s⁻¹ | koff (KIX domain of mouse CBP [5]; physiological conditions, expected, read-out: dissociation rate under physiological conditions): > 300 s⁻¹ | kon (KIX domain of mouse CBP [6]; 25 °C, from 10 °C basal rate and temperature dependence study, read-out: basal association rate constant estimated at 25 °C): 2.1e+07 M⁻¹ s⁻¹ | kon (KIX domain of mouse CBP [6]; pH 7.3, 10 °C, 20 mM MOPS pH 7.30, extrapolated with Debye–Huckel-like approximation (eq 4), read-out: basal association rate constant (infinite ionic strength)): 7.7e+06 M⁻¹ s⁻¹

O=C1OC2(c3ccc(O)cc3Oc3cc(O)ccc32)c2ccccc21 [fluoroscein]
protolytic constant (dianion/anion) ([7]; 25 °C): 6.43 | fraction as anion ([7]; pH 7.3–7.4, 25 °C): ~10% | fraction as dianion ([7]; pH 7.3–7.4, 25 °C): ~90%

B1: barstar: two folded proteins barnase and barstar, described as ultrafast associating proteins (protein, UniProt P11540 2-90, looked up)
Barstar: KKAVINGEQIRSISDLHQTLKKELALPEYYGENLDALWDCLTGWVEYPLVLEWRQFEQSKQLTENGAESVLQVFREAKAEGCDITIILS
basal kon, infinite ionic strength (barnase; extrapolated to infinite ionic strength): around 10^5 M^–1 s^–1 | kon at low ionic strength (barnase; low ionic strengths): over 5 × 10^9 M^–1 s^–1

B2: FITC-cMyb peptide (25 amino acid peptide from the transactivation domain of cMyb, N-terminally labelled with FITC) (peptide, UniProt P06876 291-315, looked up)
peptide: {FITC}-KEKRIKELELLLMSTENELKGQQAL
Kd [8]: 10.5 ± 0.7 µM
